Test results from patent US6716878B1, “Antimicrobial agents” (Vernalis (Oxford) Limited, priority 1999, dated 2004).
≈ marks a conversion by molar mass, not a printed value. Like-named read-outs stand apart in the source and are kept apart here.

Legend:
[1] = test system: Staphylococcus capitis (American Type Culture Collection number 35661); assay: Minimal inhibitory concentration (MIC) against Staphylococcus capitis, two fold serial dilutions in 2xYT broth; format: cell-based; conditions: ATCC35661, Staphylococcus capitis ATCC 35661, 37° C., 18 hours, lowest drug concentration that inhibited visible growth, read-out: MIC (S. capitis)
Method: (§1) Where MIC values are quoted for the compounds of the examples, those results were obtained by the method described in the Biological Example.
(§2) Minimal inhibitory concentrations (MIC) of inhibitors against E. coli strain DH5α (Genotype; F-φ80d/acZΔM 15Δ(lacZYA-argF)U 169 deoR recA1 endA1 hsdR17(rk^−, mk^+)phoA supE44λ^−thi-1 gyrA96 re/A1) obtained from GibcoBRL Life Technologies, or Staphylococcus capitis (American Type Culture Collection number 35661) were determined as follows. Stock solutions of each test compound were prepared by dissolution of the compound in dimethylsulfoxide at 10 mM. For the determination of the minimal inhibitory concentration, two fold serial dilutions were prepared in 2×YT broth (typtone 16 g/l, yeast extract 10 g/l, sodium chloride 5 g/l obtained from BIO 101 Inc, 1070 Joshua Way, Vista, Calif. 92083, USA) to yield 0.05 ml compound-containing medium per well. Inocula were prepared from cultures grown overnight in 2×YT broth at 37° C. Cell densities were adjusted to absorbance at 660 nm (a660)=0.1; the optical density-standardised preparations were diluted 1:1000 in 2×YT broth; and each well inoculated with 0.05 ml of the diluted bacteria. Microtiter plates were incubated at 37° C. for 18 hours in a humidified incubator. The MIC (μM) was recorded as the lowest drug concentration that inhibited visible growth.

E. coli strain DH5α = assay: Minimal inhibitory concentration (MIC) against E. coli, two fold serial dilutions in 2xYT broth; format: cell-based; conditions: Escherichia coli, read-out: MIC (E. coli)
Method: as §1, §2

[2] = E. coli strain DH5α, 2xYT broth, 37° C., 18 hours, lowest drug concentration that inhibited visible growth

MIC [1] [µM] | MIC (E. coli strain DH5α; [2]) [µM] | Compound | MIC (E. coli strain DH5α; 18 h) [µM]
25 (≈ 9.51 µg/mL) | 12.5 (≈ 4.76 µg/mL) | CCCC[C@H](CN(O)C=O)C(=O)N[C@H](C(=O)c1ccc(F)cc1)C(C)(C)C [Example 1, 2(R)-[(N-Formyl-N-hydroxyamino)-methyl]-hexanoic Acid-(1′(S)-(4-fluorobenzoyl)-2′,2′-dimethylpropyl)amide] | –
6.25 (≈ 2.45 µg/mL) | 12.5 (≈ 4.91 µg/mL) | CCCC[C@H](CN(O)C=O)C(=O)N[C@H](C(=O)c1ccc(OC)cc1)C(C)(C)C [Example 2] | –
25 (≈ 8.86 µg/mL) | 50 (≈ 17.7 µg/mL) | CCCC[C@H](CN(O)C=O)C(=O)N[C@H](C(=O)C1CCCCC1)C(C)C [Example 3, 2(R)-[(N-Formyl-N-hydroxyamino)-methyl]-hexanoic Acid-(1′(S)-cyclohexanecarbonyl-2′-methylpropyl)amide] | –
3.1 (≈ 1.26 µg/mL) | 3.1 (≈ 1.26 µg/mL) | CC(C)(C)[C@H](NC(=O)[C@H](CC1CCCC1)CN(O)C=O)C(=O)c1ccc(F)cc1 [Example 4, 3-Cyclopentyl-2(R)-[(N-formyl-N-hydroxyamino)-methyl]-N-[1′(S)-(4-fluorobenzoyl)-2′,2′-dimethylpropyl]propionamide] | –
1.6 (≈ 0.67 µg/mL) | 3.1 (≈ 1.3 µg/mL) | COc1ccc(C(=O)[C@@H](NC(=O)[C@H](CC2CCCC2)CN(O)C=O)C(C)(C)C)cc1 [Example 5, 3-Cyclopentyl-2(R)-[(N-formyl-N-hydroxyamino)-methyl]-N-[1′(S)-(4-methoxybenzoyl)-2′,2′-dimethylpropyl]propionamide] | –
200 (≈ 73.3 µg/mL) | 25 (≈ 9.16 µg/mL) | CCCC[C@H](CN(O)C=O)C(=O)N[C@H](C(=O)c1nccn1C)C(C)(C)C [Example 6, 2(R)-[(N-Formyl-N-hydroxyamino)-methyl]-hexanoic Acid-[2,2-dimethyl-1(S)(1-methyl-1H-imidazole-2-carbonyl)-propyl]-amide] | –
50 (≈ 18.2 µg/mL) | 12.5 (≈ 4.54 µg/mL) | CCCC[C@H](CN(O)C=O)C(=O)N[C@H](C(=O)c1ccccn1)C(C)(C)C [Example 7, 2(R)-[(N-Formyl-N-hydroxyamino)-methyl]-hexanoic Acid-[2,2-dimethyl-1(S)-(pyridine-2-carbonyl)-propyl]-amide] | –
1.6 (≈ 0.644 µg/mL) | 6.25 (≈ 2.52 µg/mL) | CCCC[C@H](CN(O)C=O)C(=O)N[C@H](C(=O)c1cc2ccccc2o1)C(C)(C)C [Example 8, 2(R)-[(N-Formyl-N-hydroxyamino)-methyl]-hexanoic Acid-(1′(S)-(benzofuran-2-carbonyl)-2′,2′-dimethylpropyl)amide] | –
0.7 (≈ 0.3 µg/mL) | 6.25 (≈ 2.68 µg/mL) | CC(C)(C)[C@H](NC(=O)[C@H](CC1CCCC1)CN(O)C=O)C(=O)c1cc2ccccc2o1 [Example 9, N-[1(S)-(Benzofuran-2-carbonyl)-2,2-dimethylpropyl]-3′-cyclopentyl-2′(R)-[(N-formyl-N-hydroxyamino)-methyl]-propionamide] | –
25 (≈ 10.6 µg/mL) | 25 (≈ 10.6 µg/mL) | CCCC[C@H](CN(O)C=O)C(=O)N[C@H](C(=O)c1ccc(OC)cc1OC)C(C)(C)C [Example 11, 2(R)-[(N-Formyl-N-hydroxyamino)-methyl]-hexanoic Acid [1′-(2,4-dimethoxy-benzoyl)-2′,2′-dimethylpropyl]-amide] | –
12 (≈ 4.54 µg/mL) | 6.25 (≈ 2.37 µg/mL) | CCCC[C@H](CN(O)C=O)C(=O)N[C@H](C(=O)c1ccc(O)cc1)C(C)(C)C [Example 12, 2(R)-[(N-Formyl-N-hydroxyamino)-methyl]-hexanoic Acid [1′(S)-(4-hydroxy-benzoyl)-2′,2′-dimethylpropyl]-amide] | –
100 (≈ 37.7 µg/mL) | – | CCCC[C@H](CN(O)C=O)C(=O)N[C@H](C(=O)Cc1ccccn1)C(C)(C)C [Example 15, 2(R)-[(N-Formyl-N-hydroxyamino)-methyl]-hexanoic Acid-(1′(S)-tert-butyl-2′-oxo-3′-pyridin-2-yl-propyl) Amide] | –
25 (≈ 11 µg/mL) | 6.25 (≈ 2.75 µg/mL) | CCCC[C@H](CN(O)C=O)C(=O)N[C@H](C(=O)c1ccc(S(C)(=O)=O)cc1)C(C)(C)C [Example 16, 2(R)-[(N-Formyl-N-hydroxyamino)-methyl]-hexanoic Acid [1′(S)-(4-methanesulfonyl-benzoyl)-2′,2′-dimethyl-propyl]amide] | –
25 (≈ 10.5 µg/mL) | 100 (≈ 41.9 µg/mL) | COc1ccc(C(=O)[C@H](NC(=O)[C@@H](CC2CCCC2)CN(O)C=O)C(C)(C)C)cc1 [Example 17, 3-Cyclopentyl-2(S)-[(N-formyl-N-hydroxyamino)-methyl]-N-[1′(R)-(4-methoxybenzoyl)-2′,2′-dimethylpropyl]propionamide] | –
12.5 (≈ 4.41 µg/mL) | 12.5 (≈ 4.41 µg/mL) | CCCC[C@H](CN(O)C=O)C(=O)N[C@H](C(=O)c1ccco1)C(C)(C)C [Example 18, 2(R)-[(N-Formyl-N-hydroxyamino)-methyl]-hexanoic Acid-(1′(S)-(furan-2-carbonyl)-2′,2′-dimethylpropyl)amide] | –
12.5 (≈ 4.57 µg/mL) | 12.5 (≈ 4.57 µg/mL) | CCCC[C@H](CN(O)C=O)C(=O)N[C@H](C(=O)c1cccn1C)C(C)(C)C [Example 19, 2(R)-[(N-Formyl-N-hydroxyamino)-methyl]-hexanoic Acid-(2′,2′-dimethyl-1′(S)-(1-methyl-1H-pyrrole-2-carbonyl)-propyl)amide] | –
12.5 (≈ 4.72 µg/mL) | 6.25 (≈ 2.36 µg/mL) | CCCC[C@H](CN(O)C=O)C(=O)N[C@H](C(=O)c1ccc(N)cc1)C(C)(C)C [Example 20, 2(R)-[(N-Formyl-N-hydroxyamino)-methyl]-hexanoic Acid-(1′(S)-(4-aminobenzoyl)-2′,2′-dimethylpropyl)amide] | –
3.1 (≈ 1.3 µg/mL) | 12.5 (≈ 5.24 µg/mL) | CCCC[C@H](CN(O)C=O)C(=O)N[C@H](C(=O)c1ccc(NC(C)=O)cc1)C(C)(C)C [Example 22, 2(R)-[(N-Formyl-N-hydroxyamino)-methyl]-hexanoic Acid-(1′(S)-(4-acetylaminobenzoyl)-2′,2′-dimethylpropyl)amide] | –
3.1 (≈ 1.41 µg/mL) | 50 (≈ 22.8 µg/mL) | CCCC[C@H](CN(O)C=O)C(=O)N[C@H](C(=O)c1ccc(NS(C)(=O)=O)cc1)C(C)(C)C [Example 23, 2(R)-[(N-Formyl-N-hydroxyamino)-methyl]-hexanoic Acid-(1′(S)-(4-methanesulfonylaminobenzoyl)-2′,2′-dimethylpropyl)amide] | –
3.1 (≈ 1.39 µg/mL) | 6.25 (≈ 2.8 µg/mL) | CCCC[C@H](CN(O)C=O)C(=O)N[C@H](C(=O)c1ccc(N2CCOCC2)cc1)C(C)(C)C [Example 24, 2(R)-[(N-Formyl-N-hydroxyamino)-methyl]-hexanoic Acid-(2′,2′-dimethyl-1′(S)-(4-morpholin-4-ylbenzoyl)-propyl)amide] | –
3.1 (≈ 1.66 µg/mL) | 50 (≈ 26.8 µg/mL) | CCCC[C@H](CN(O)C=O)C(=O)N[C@H](C(=O)c1ccc(N2CCN(Cc3ccccc3)CC2)cc1)C(C)(C)C [Example 25, 2(R)-[(N-Formyl-N-hydroxyamino)-methyl]-hexanoic Acid-(1′(S)-[4-(4-benzylpiperazin-1-yl)-benzoyl]-2′,2′-dimethylpropyl)amide] | –
12.5 (≈ 5.58 µg/mL) | 3.1 (≈ 1.38 µg/mL) | CCCC[C@H](CN(O)C=O)C(=O)N[C@H](C(=O)c1ccc(N2CCNCC2)cc1)C(C)(C)C [Example 26, 2(R)-[(N-Formyl-N-hydroxyamino)-methyl]-hexanoic Acid-(2′,2′-dimethyl-1′(S)-(4-piperazin-1-yl-benzoyl)-propyl)amide] | –

Compound | MIC [1] [µM] | MIC (E. coli strain DH5α; [2]) [µM] | MIC (E. coli strain DH5α; 18 h) [µM]
CCCC[C@H](CN(O)C=O)C(=O)N[C@H](C(=O)c1ccc(NC(=O)C(F)(F)F)cc1)C(C)(C)C [Example 21, 2(R)-[(N-Formyl-N-hydroxyamino)-methyl]-hexanoic Acid-(2′,2′-dimethyl-1′(S)-[4-(2,2,2-trifluoroacetylamino)-benzoyl]-propyl)amide] | 6.25 (≈ 2.96 µg/mL) | – | 6.25 (≈ 2.96 µg/mL)
